Where two headings read alike, the source gives them in different places.
Tests used:
[1] = Pharmacokinetic analysis of multiple doses of sepiapterin (once daily for 7 days, fed subjects); assay type: in vivo, human; conditions: human, plasma, fed; for AUC(0-t): read-out: AUC0-24; for Cmax: read-out: Cmax
Description: Methods: Three cohorts of eight fed subjects each were randomized to receive once-daily sepiapterin or placebo for 7 days in a 6:2 ratio. A sentinel dose strategy was also used for administration of the highest sepiapterin dose.

[2] = Food effect on administration of sepiapterin: plasma sepiapterin and BH4 concentrations, fasted vs fed; assay type: in vivo, human; conditions: sepiapterin 10 mg/kg oral; for concentration at 0 h / concentration at 0.5 h / concentration at 1 h / concentration at 2 h / concentration at 4 h / concentration at 8 h / concentration at 12 h / concentration at 24 h: human, oral, 10 mg/kg; for concentration at 0 h: 0 h (predose)
Protocol: Method: Subjects received 2 oral doses of sepiapterin (10 mg/kg) separated by 1 week in a fasted and fed state. Subjects were fed a standard high-fat (approximately 50 percent of total caloric content of the meal) and high-calorie (approximately 800 to 1000 calories) meal starting 30 minutes prior to receiving their second oral dose of sepiapterin on Day 8.
Sampling for PK analysis occurred predose on Days 1 and 8 (within 30 minutes before dosing) and 0.5 hr, 1 hr, 2 hr, 4 hr, 8 hr, 12 hr, and 24 hr after the doses on Days 1 and 8. The blood concentrations of sepiapterin and BH4 were analyzed by MNG Labs.

[3] = 5 mg/kg, Day 1, sepiapterin 5 mg/kg once daily
[4] = 5 mg/kg, Day 7, sepiapterin 5 mg/kg once daily
[5] = 20 mg/kg, Day 1, sepiapterin 20 mg/kg once daily
[6] = 20 mg/kg, Day 7, sepiapterin 20 mg/kg once daily
[7] = 60 mg/kg, Day 1, sepiapterin 60 mg/kg once daily
[8] = 60 mg/kg, Day 7, sepiapterin 60 mg/kg once daily
[9] = plasma, fasted, read-out: Concentration in Plasma, Maximum
[10] = plasma, fasted, read-out: Concentration in Plasma, Mean
[11] = plasma, fasted, read-out: Concentration in Plasma, Median
[12] = plasma, fasted, read-out: Concentration in Plasma, Minimum
[13] = plasma, fed (high-fat meal), read-out: Concentration in Plasma, Maximum
[14] = plasma, fed (high-fat meal), read-out: Concentration in Plasma, Mean
[15] = plasma, fed (high-fat meal), read-out: Concentration in Plasma, Median
[16] = plasma, fed (high-fat meal), read-out: Concentration in Plasma, Minimum

## C[C@H](O)[C@H](O)[C@H]1CNc2nc(N)[nH]c(=O)c2N1 [BH4, Tetrahydrobiopterin]
[1]; [3]
  Tmax: 4 h
  AUC(0-t): 994 ng·h/mL
  Cmax: 147 ng/mL
[1]; [4]
  Tmax: 4 h
  AUC(0-t): 1070 ng·h/mL
  Cmax: 152 ng/mL
[1]; [5]
  Tmax: 4 h
  AUC(0-t): 3030 ng·h/mL
  Cmax: 496 ng/mL
[1]; [6]
  Tmax: 4 h
  AUC(0-t): 3720 ng·h/mL
  Cmax: 516 ng/mL
[1]; [7]
  Tmax: 4.6 h
  AUC(0-t): 4560 ng·h/mL
  Cmax: 597 ng/mL
[1]; [8]
  Tmax: 4 h
  AUC(0-t): 4860 ng·h/mL
  Cmax: 678 ng/mL
[1]; Day 1, sepiapterin 5 mg/kg once daily
  AUC(0-inf): 1010 ng·h/mL
[1]; Day 1, sepiapterin 20 mg/kg once daily
  AUC(0-inf): 3080 ng·h/mL
[1]; Day 1, sepiapterin 60 mg/kg once daily
  AUC(0-inf): 4670 ng·h/mL
[2]; [9]
  concentration at 0 h: 9 nM
  concentration at 0.5 h: 66.5 nM
  concentration at 1 h: 223 nM
  concentration at 2 h: 618 nM
  concentration at 4 h: 1130 nM
  concentration at 8 h: 457 nM
  concentration at 12 h: 162 nM
  concentration at 24 h: 37.4 nM
[2]; [10]
  concentration at 0 h: 7.62 nM
  concentration at 0.5 h: 25.6 nM
  concentration at 1 h: 155 nM
  concentration at 2 h: 413 nM
  concentration at 4 h: 624 nM
  concentration at 8 h: 248 nM
  concentration at 12 h: 85.9 nM
  concentration at 24 h: 18.3 nM
[2]; [11]
  concentration at 0 h: 7.75 nM
  concentration at 0.5 h: 22.9 nM
  concentration at 1 h: 147 nM
  concentration at 2 h: 370 nM
  concentration at 4 h: 635 nM
  concentration at 8 h: 233 nM
  concentration at 12 h: 75.3 nM
  concentration at 24 h: 15.3 nM
[2]; [12]
  concentration at 0 h: 5 nM
  concentration at 0.5 h: 13.8 nM
  concentration at 1 h: 98.5 nM
  concentration at 2 h: 271 nM
  concentration at 4 h: 379 nM
  concentration at 8 h: 90.2 nM
  concentration at 12 h: 38.9 nM
  concentration at 24 h: 8.5 nM
[2]; [13]
  concentration at 0 h: 11 nM
  concentration at 0.5 h: 76.4 nM
  concentration at 1 h: 369 nM
  concentration at 2 h: 1200 nM
  concentration at 4 h: 1570 nM
  concentration at 8 h: 926 nM
  concentration at 12 h: 261 nM
  concentration at 24 h: 40.1 nM
[2]; [14]
  concentration at 0 h: 8.43 nM
  concentration at 0.5 h: 33.3 nM
  concentration at 1 h: 166 nM
  concentration at 2 h: 587 nM
  concentration at 4 h: 1100 nM
  concentration at 8 h: 520 nM
  concentration at 12 h: 161 nM
  concentration at 24 h: 19.3 nM
[2]; [15]
  concentration at 0 h: 8.5 nM
  concentration at 0.5 h: 30.9 nM
  concentration at 1 h: 160 nM
  concentration at 2 h: 554 nM
  concentration at 4 h: 1010 nM
  concentration at 8 h: 485 nM
  concentration at 12 h: 142 nM
  concentration at 24 h: 16.1 nM
[2]; [16]
  concentration at 0 h: 6 nM
  concentration at 0.5 h: 8.9 nM
  concentration at 1 h: 42.3 nM
  concentration at 2 h: 299 nM
  concentration at 4 h: 751 nM
  concentration at 8 h: 253 nM
  concentration at 12 h: 90.4 nM
  concentration at 24 h: 12.1 nM
[2]; plasma
  Geometric mean ratio (fasted/fed, 90% CI) for AUC0-inf: 0.58 (0.47 to 0.71)
  Geometric mean ratio (fasted/fed, 90% CI) for Cmax: 0.55 (0.45 to 0.68)
[2]
  Cmax in the plasma, fed compared to fasted subjects (in words): much higher
  Increase in overall exposure (AUC0-inf and AUClast), fed compared with fasted state: 1.7 fold

Reference: patent US20220362249A1, “METHODS FOR TREATING […]” (PTC Therapeutics MP, Inc., priority 2019, published 2022)
